In the OPERA property sets (Mansouri et al. 2018):

details: not given

| SMILES | boiling point [°C] | melting point [°C] | ready biodegradability | log10 vapour pressure (mmHg) | log10 Koc (L/kg) | log10 Henry constant (atm·m³/mol) | log10 Koa |
| --- | --- | --- | --- | --- | --- | --- | --- |
| CC[C@@H](O)[C@@H]1CCCCN1 | 226 | 121 |  |  |  |  |  |
| Cc1ccc(C#N)c(=O)[nH]1 |  |  | readily biodegradable |  |  |  |  |
| CCCC(C)C(C)C(C)C (configuration not stated) | 161 |  |  |  |  |  |  |
| CN1C(=O)c2ccc([N+](=O)[O-])cc2C1=O | 361 |  |  |  |  |  |  |
| CCCCC(CC)C(=O)OCC(COC(=O)C(CC)CCCC)OC(=O)C(CC)CCCC (configuration not stated) |  |  | readily biodegradable |  |  |  |  |
| COC1CCC=CO1 (configuration not stated) | 118 | 16 |  | 1.04 |  |  |  |
| CCCC=CC(=O)O | 216 | 36.5 |  |  |  |  |  |
| C=C(CCC)CCC | 118 |  |  |  |  |  |  |
| CC(=O)OCCN(C)C | 152 |  |  |  |  |  |  |
| CCOC(=O)C(C(=O)OCC)c1ccccc1 |  | 16.5 |  |  |  |  |  |
| O=C(O)c1cc(F)ccc1F |  | 133 |  |  |  |  |  |
| CCOC(=O)C(C(=O)OCC)=C(C)C | 176 |  |  |  |  |  |  |
| COc1ccc(NC(=O)N(C)C)cc1Cl |  | 126 |  |  | 1.72 |  |  |
| CCO[Si](C)(OCC)OCC | 142 |  |  |  |  |  |  |
| CCOCC(C)O (configuration not stated) | 131 |  |  |  |  |  |  |
| COc1ccc2cc1Oc1ccc(cc1)C[C@H]1c3cc(c(OC)cc3CCN1C)Oc1c(OC)c(OC)cc3c1[C@H](C2)N(C)CC3 |  | 218 |  |  |  |  |  |
| Nc1cccc([N+](=O)[O-])c1 | 306 | 114 | not readily biodegradable | -4.02 | 1.73 | -8.1 |  |
| CCN(CCO)c1ccc(/N=N/c2ccc([N+](=O)[O-])cc2Cl)cc1 |  | 133 |  |  |  |  |  |
| COC(=O)c1c(Cl)nn(C)c1S(=O)(=O)NC(=O)Nc1nc(OC)cc(OC)n1 |  | 176 |  |  |  |  |  |

| SMILES | boiling point [°C] | melting point [°C] | ready biodegradability | log10 vapour pressure (mmHg) | log10 Koc (L/kg) | log10 Henry constant (atm·m³/mol) | log10 Koa |
| --- | --- | --- | --- | --- | --- | --- | --- |
| CCOCOCC | 88 | -66.5 |  | 1.53 |  |  |  |
| N#CCCCC#N | 286 | -29 |  | -2.08 |  |  |  |
| NS(=O)(=O)c1ccc(SCCO)c(F)c1 |  | 110 |  |  |  |  |  |
| CCc1cccc(C(C)=O)c1 |  | -20 |  | 0.357 |  |  |  |
| CC(C)OC(=O)c1cc(C(=O)OC(C)C)cc([N+](=O)[O-])c1 |  | 65 |  |  |  |  |  |
| CCCS(=O)(=O)O |  | 7.5 |  |  |  |  |  |
| O=C1CCC(c2ccccc2)O1 (configuration not stated) | 306 | 36.5 |  |  |  |  |  |
| CC(=O)C1CC1 | 111 | -68.3 |  |  |  | -4.99 |  |
| CCCCCC(=O)OCC(COC(=O)CCCCC)OC(=O)CCCCC |  | -60 |  |  |  |  |  |
| NC(=O)C[C@H](O)C(=O)O |  | 148 |  |  |  |  |  |
| O[Si](c1ccccc1)(c1ccccc1)c1ccccc1 |  | 155 |  |  |  |  |  |
| Cn1c(=O)n(C)c(=O)n(C)c1=O | 274 | 176 |  |  |  |  |  |
| O=C(O)C1CC=CCC1C(=O)O (configuration not stated) |  |  | not readily biodegradable |  |  |  |  |
| C#CC(=C)C | 32 | -113 |  |  |  |  |  |
| O=C(Cl)c1ccc2ccccc2c1 | 305 | 51 |  |  |  |  |  |
| Cc1ccc(CN)cc1 | 195 | 12.5 |  |  |  |  |  |
| O=C1c2ccccc2C(=O)c2c(O)cccc21 |  | 194 | not readily biodegradable | -6.68 |  |  |  |
| O=C1CCCCCN1 | 270 | 69.3 | readily biodegradable | -2.8 |  |  |  |
| Cc1cccc(C(C)c2ccccc2)c1C (configuration not stated) |  |  | not readily biodegradable |  |  |  |  |

| SMILES | boiling point [°C] | melting point [°C] | ready biodegradability | log10 vapour pressure (mmHg) | log10 Koc (L/kg) | log10 Henry constant (atm·m³/mol) | log10 Koa |
| --- | --- | --- | --- | --- | --- | --- | --- |
| COc1ccc(C)cc1N | 235 | 53 | not readily biodegradable |  |  |  |  |
| OC1CCCCCCCCCCCCCC1 |  | 80.5 |  |  |  |  |  |
| CC1CCCC1=O (configuration not stated) | 140 | -75 |  |  |  |  |  |
| CCCC(=O)OC(C)C | 130 |  |  |  |  |  |  |
| CCC#CCCO | 163 |  | readily biodegradable |  |  |  |  |
| C=C1CC(=O)OC1=O |  | 69 |  |  |  |  |  |
| COc1cc(OC)c(OC)cc1C=O |  | 114 |  |  |  |  |  |
| O=NN1CCCC1 | 214 |  |  | -1.22 |  |  |  |
| CC(=O)c1ccsc1 | 210 | 60 |  |  |  |  |  |
| O=C(Nc1ccc(Cl)cc1)c1cc(Br)ccc1O |  | 240 |  |  |  |  |  |
| O=C1CCCCC1Cl (configuration not stated) |  | 23 |  |  |  |  |  |
| CSC#N | 133 | -5 |  | 1.08 |  |  |  |
| O=C(O)c1ccccc1I |  | 163 | not readily biodegradable |  |  |  |  |
| O=C(O)c1c(F)c(F)c(F)c(F)c1F | 220 | 101 |  |  |  |  |  |
| BrC(Br)Br | 149 | 8 | not readily biodegradable | 0.732 | 2.06 | -3.27 |  |
| CCC(=O)c1ccc(Br)cc1 |  | 48 |  |  |  |  |  |
| C#CCOC(=O)/C=C(C)/C=C/CC(C)CCCC(C)C (configuration not stated) |  |  |  | -5.14 |  |  |  |
| Brc1ccccc1Oc1ccccc1 |  |  |  |  |  |  | 7.24 |
| O=C(N[C@@H](Cc1ccccc1)C(=O)O)OCc1ccccc1 |  | 88.5 |  |  |  |  |  |

same assay, conditions: fish

| SMILES | log10 BCF | log10 biotransformation half-life (days) |
| --- | --- | --- |
| CNC(=O)Oc1cccc2ccccc12 | 0.95 | -1.18 |
| CCC(C)c1ccc(O)cc1 (configuration not stated) | 1.31 | -0.84 |
| ClCCOCCCl | 1 | -0.81 |
| O=[N+]([O-])c1cccc(Cl)c1Cl | 2.16 | 0.54 |
| Nc1cccc([N+](=O)[O-])c1 | 0.48 | -0.77 |
| O[Si](c1ccccc1)(c1ccccc1)c1ccccc1 |  | 0.07 |
| O=C(O)C1CC=CCC1C(=O)O (configuration not stated) | 0.3 | -0.57 |
| O=C1c2ccccc2C(=O)c2c(O)cccc21 | 2.25 |  |
| COc1ccc(C)cc1N | 0.55 | -1 |
| BrC(Br)Br | 1.13 | -0.7 |
